Reference: ChEMBL document CHEMBL5303711, “ECBD screening data for assay EOS300108” (2023)
Active and inactive are the calls of the source. The rule behind the calls is not given here.

Assay: Cytotoxicity activity against human HepG2 cells assessed by CellTiter-Glo luminescent cell viability assay.
Type: toxicity, cell-based
Parameters: assay stage confirmatory assay, source tissue liver
Conditions: HepG2 cells, read-out: IC50 relative

Row | SMILES | CC50
1 | O=c1c2ccccc2sn1-c1nccs1 | 50 µM (inactive)
2 | Cc1cc(Br)cc(C)c1OCCCCN(C)C | 9.8 µM (active)
3 | OCc1cc(C(O)CNCCCCCCOCCCCc2ccccc2)ccc1O (stereo not drawn) [SALMETEROL] | 6.6 µM (active)
4 | Fc1ccc2[nH]c(CCNc3ncc(Br)cn3)nc2c1 | 5.1 µM (active)
5 | O=C1Nc2ccccc2/C1=C1\Nc2ccccc2\C1=N/O | 14.6 µM (inactive)
6 | COc1ccc(-n2ccc(C(=O)Nc3cc(Cl)c(=O)n(C)c3)n2)cc1 | 7.7 µM (active)
7 | O=c1cc(O)c2c(-c3ccc(F)cc3)csc2[nH]1 | 2.7 µM (active)
8 | C=C(C)[C@H]1Cc2c(ccc3c2O[C@@H]2COc4cc(OC)c(OC)cc4[C@@H]2C3=O)O1 [ROTENONE] | 0.5 µM (active)
9 | N#Cc1ccc(CNC(=O)CCCCCN2CCN(c3ccccc3-c3ccccc3)CC2)cc1 | 12.3 µM (active)
10 | COc1cc(N2CCC(N)CC2)ccc1Nc1ncc(Cl)c(-c2c[nH]c3ccccc23)n1 | 4.2 µM (active)
11 | COc1ccc([C@@H](O)c2cc(-c3ncnc4cc(N5CCOCC5)ccc34)c(F)cc2Cl)nn1 [NEDISERTIB] | 3.4 µM (active)
12 | COc1ccc(NC(=O)C2=C(c3ccccc3)S(=O)(=O)CCO2)c(OC)c1 | 9.7 µM (active)
13 | Cc1nc(-c2ccccc2)oc1C(=O)Nc1ccc(N2CCN(C)CC2)cn1 | 12.9 µM (active)
14 | CC[S+]([O-])c1nc(-c2cccc(OCc3ccccc3)c2)cc(C(F)(F)F)n1 (stereo not drawn) | 5.3 µM (active)
15 | CCN1CCN(Cc2cc(=O)oc3cc(-c4ccccc4)c(O)cc23)CC1 | 3.8 µM (active)
16 | CS(=O)(=O)N1CCc2ccc(NC(=O)Nc3ccc(Br)cc3)cc21 | 3.2 µM (inactive)
17 | CC(C)c1cc(Br)ccc1OCCCN1CCN(C)CC1 | 4.1 µM (active)
18 | CN1CCc2nc(C(=O)c3nc4c(s3)CN(C)CC4)sc2C1 | 0.5 µM (active)
19 | CNCc1ccc(-c2cc(-c3nc(-c4ccc(S(=O)(=O)C(C)C)cc4)cnc3N)on2)cc1 [BERZOSERTIB] | 2.7 µM (active)
20 | CC1CCN(S(=O)(=O)c2ccc(-c3nc(C#N)c(NCCCN(C)C)o3)cc2)CC1 | 5.8 µM (active)
21 | Cn1ccc(C(=O)Nc2cc(F)ccc2-n2cccn2)cc1=O | 1.1 µM (inactive)
22 | CC(C)=CCC[C@]1(C)C=Cc2c(O)c3c(c(CC=C(C)C)c2O1)O[C@]12C(=C[C@@H]4C[C@H]1C(C)(C)O[C@@]2(C/C=C(/C)C(=O)O)C4=O)C3=O | 0.7 µM (active)
23 | CC(C)c1cnc(NC(=O)N2CC3(CN(C)C(=O)O3)C2)s1 | 12.7 µM (inactive)

Row | SMILES | CC50
24 | CCCCC(=O)Nc1ccc(Nc2nc(C)cc(N3CCOCC3)n2)cc1 | 10.1 µM (active)
25 | C[C@@H](C(=O)Nc1c2c(nn1C)CSC2)N1Cc2ccccc2C1=O | 15.8 µM (inactive)
26 | O=C(Nc1nnc(-c2ccccc2)o1)c1cccc(S(=O)(=O)N2CCOCC2)c1 | 8.9 µM (active)
27 | CC(C)[C@H](NC1CCN(C(=O)c2ccoc2)CC1)c1ccccc1 | 10.7 µM (active)
28 | COc1ccc(CN(Cc2cn3c(C)cccc3n2)C2CC2)c(OC)c1 | 9.7 µM (active)
29 | COc1cc(NCCCC(C)N)c2ncccc2c1 (stereo not drawn) | 8.6 µM (active)
30 | O=C(Cn1ncc(Cl)c(Cl)c1=O)N1CCC[C@H]1c1cccs1 | 4.2 µM (active)
31 | CCNc1cc2[o+]c3cc(NCC)c(C)cc3c(-c3ccccc3C(=O)OCC)c2cc1C | 1 µM (active)
32 | COc1cc(CN2CCN(c3ccccc3C)CC2)ccc1O | 8 µM (active)
33 | CC(C)(O)CNc1ncc(-c2ccnc(Nc3ccnc(Cl)c3)n2)c(CC2CC2)n1 | 4 µM (active)
34 | Fc1cccc(OC2CCN(C[C@H]3[C@@H]4CNC[C@@H]43)CC2)c1 | 7.9 µM (active)
35 | CC(=O)Nc1cccc(NC(=O)c2cc3ccccc3cc2O)c1 | 1.6 µM (inactive)
36 | NCc1ccc(-c2ccccc2)s1 | 5.9 µM (active)
37 | CCCCc1cc(=O)oc2c(C)c(OCC(=O)NCCN(C)C)ccc12 | 13 µM (inactive)
38 | CC(C)CCNC(=O)COc1ccc(-c2nc(C(C)C)no2)cc1 | 3.2 µM (active)
39 | O=S(=O)(c1ccc(F)cc1)N1CCN(c2ccc(Nc3ccncc3)nn2)CC1 | 13.6 µM (inactive)
40 | Clc1ccc(OCC2CCCNC2)c2ccccc12 (stereo not drawn) | 2 µM (active)
41 | Cc1ccc(S(=O)(=O)c2cn(C)c3cc(N4CCN(C)CC4)c(F)cc3c2=O)cc1 | 15.1 µM (inactive)
42 | N#Cc1c(N)[nH]c2cc(Br)ccc12 | 18 µM (inactive)
43 | CC(C)CNC(=O)N1CC(Oc2ccc(-c3noc(-c4cccnc4)n3)cc2)C1 | 5.4 µM (active)
44 | O=c1[nH]c2ccccc2n1C1CCN(c2nccc(-c3cccnc3)n2)CC1 | 11.2 µM (active)
45 | O=C(Nc1ccc2c(c1)OCCO2)N1CCN(c2ccnc(N3CCCCC3)n2)CC1 | 12.1 µM (active)
46 | COc1cc2c(O)c3c(c(-c4ccc5c(c4)OCO5)c2cc1OC)C(=O)OC3 [DIPHYLLIN] | 1.4 µM (active)

Row | SMILES | CC50
47 | Cc1noc(C)c1CC(=O)Nc1nc(-c2ccc(S(=O)(=O)N(C)C)cc2)cs1 | 4.3 µM (active)
48 | Cc1cccc2nc(C(=O)Nc3ccc4c(c3)OC3(CCCC3)O4)cn12 | 11.9 µM (active)
49 | CCCN(CCC)C(=O)C1=Cc2ccc(-c3ccc(C(=O)N4CCCC4)cc3)cc2N=C(N)C1 [MOTOLIMOD] | 11.3 µM (active)
50 | CCn1c(=O)c(-c2ccc(-c3cncs3)cc2Cl)cc2cnc(Nc3ccc(N4CCN(C)CC4)cc3)nc21 | 29 µM (inactive)
51 | C[C@]1(O)C[C@@H](c2nc(-c3ccc4ccc(-c5ccccc5)nc4c3)c3c(N)nccn32)C1 [LINSITINIB] | 5.3 µM (active)
52 | CC(=O)N1CCCSc2ccc(S(=O)(=O)NCCCc3ccccc3)cc21 | 12.2 µM (active)
53 | Cc1[nH]c2c(C)ccc(F)c2c1CCN | 11.7 µM (active)
54 | O=C(Cn1ncc(Cl)c(Cl)c1=O)NCc1ccccc1 | 5.4 µM (active)
55 | COc1ccc(C)cc1S(=O)(=O)N1CCCC(C(=O)N2CCN(c3ccccc3F)CC2)C1 (stereo not drawn) | 9.9 µM (inactive)
56 | CS(=O)(=O)Nc1ccc(C(=O)N2CCN(CCOc3ccc(Cl)cc3)CC2)cc1 | 4.6 µM (active)
57 | OC1(CNCCSCc2cccc(Cl)c2)CCNC1 (stereo not drawn) | 8.4 µM (active)
58 | COc1ccc(C(=O)N[C@@H]2CN(Cc3ccccc3)C[C@H]2CN(C)C)cc1F | 12.1 µM (active)
59 | Cc1ccnc(NC(=O)c2csc(Cl)c2)n1 | 4.8 µM (active)
60 | O=C1CCc2c(Oc3ccc4c(c3)[C@@H]3[C@H](O4)[C@H]3c3nc4ccc(C(F)(F)F)cc4[nH]3)ccnc2N1 [LIFIRAFENIB] | 0.5 µM (active)
61 | CC1CCC/C=C\C2CC(O)CC2C(O)/C=C\C(=O)O1 (stereo not drawn) | < 0.1 µM (active)
62 | Cc1cc(C)cc(C(=O)N2CCN(c3cc(=O)n(C(C)C)c(=O)n3C(C)C)CC2)c1 | 3.5 µM (active)
63 | CN(C)Cc1cccc(N/C(=C2\C(=O)Nc3cc(C(=O)N(C)C)ccc32)c2ccccc2)c1 | 10 µM (active)
64 | O=C(Nc1nc(-c2ccc(F)cc2)n[nH]1)c1ccco1 | 3.4 µM (active)
65 | c1ccc2c(c1)OC[C@H](CNc1ncnc3sccc13)O2 | 1.8 µM (active)
66 | COc1cc2c(NC3CCN(C4CCCCC4)CC3)nc(N3CCCN(C(C)C)CC3)nc2cc1OCCCN1CCCCC1 | 6.6 µM (active)
67 | Cc1cc(O)c(-c2ccc([C@@H](C)CN(C)C)cc2)c2c1[nH]c(=O)c1sccc12 | 0.1 µM (active)
68 | Clc1ccc(-c2cnc(CN3CC4(CCNCC4)[C@H]4COC[C@H]43)o2)cc1 | 12.8 µM (active)
